In assay [1] the target is T1, Aβ1-42 (Homo sapiens, UniProt P05067).
T1 construct: dissolving Aβ1-42 or Tau-RD3 (Tau repeat domain 3) monomers in DMSO
Briefly: Amyloid-beta disaggregation test by Thioflavin-T analysis. The assay is classed as biochemical. The settings on record: for EC50: Aβ1-42 50 µM aggregated 24 hours, then compound 0 - 500 µM for 48 hours at 37 °C, concentration disaggregating 50 % of aggregates vs control, read-out: EC50 (µM) Aβ. The method in brief:
(§1)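 Aβ1-42 (50 µM) or Tau-RD3 (35 µM) pre-aggregated 24 h at 37 °C, then incubated with compound (500 µM down to 0 µM, serial dilution) for 48 h at 37 °C. Read-out by Thioflavin-T (5 µM solution, glycine buffer pH 8.5) fluorescence, ex 450/em 485 nm. Values expressed relative to 72 h aggregated protein-only control (100%).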

In assay [2] the target is Tau-RD3 (Tau repeat domain 3) (Homo sapiens, UniProt P10636). Briefly: Tau disaggregation test by Thioflavin-T analysis. In kind it is biochemical. The settings on record: for EC50: Tau-RD3 35 µM aggregated 24 hours, then compound 0 - 500 µM for 48 hours at 37 °C, concentration disaggregating 50 % of aggregates vs control, read-out: EC50 (µM) Tau. The method in brief: as §1

Where [3] appears, read: statement in words summarising the Thioflavin-T results.

Where only a bound is given, the exact number is not on record here.

T1 sequence (P05067 672-713 limits assumed): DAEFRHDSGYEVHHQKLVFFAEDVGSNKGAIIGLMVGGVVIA
Chain of Tau-RD3 (Tau repeat domain 3) (P10636 623-653 limits assumed): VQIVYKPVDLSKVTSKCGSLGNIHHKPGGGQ

In the case of `COc1cccc(OC)c1C1=C(c2cccnc2)C(=O)c2cc(OCCCc3ccccc3)ccc21` [Compound 45, 3-(2,6-dimethoxyphenyl)-6-(3-phenylpropoxy)-2-(pyridin-3-yl)-1H-inden-1-one], the EC50 – broadly, the concentration giving half of the maximal effect – is < 20 µM in assay [1] and 100 to 250 µM in assay [2].

Take `Cc1ncsc1C1=C(c2cccnc2)C(=O)c2cc(N(C)CCCc3ccccc3)ccc21` [Compound 38, 6-(methyl(3-phenylpropyl)amino)-3-(4-methylthiazol-5-yl)-2-(pyridin-3-yl)-1H-inden-1-one]: the EC50 is < 20 µM in assay [1] and > 250 µM in assay [2].

With `O=C1C(c2cncs2)=C(c2cncs2)c2ccc(O)cc21` [Compound 83-6, 6-hydroxy-2,3-di(thiazol-5-yl)-1H-inden-1-one], the values for the EC50 in assay [1] and in assay [2] were > 250 µM and 100 to 250 µM, respectively.

Take `Cc1ncsc1C1=C(c2cccc(CN3CCN(C)CC3)c2)c2ccccc2C1=O` [Compound 93, 3-(3-((4-methylpiperazin-1-yl)methyl)phenyl)-2-(4-methylthiazol-5-yl)-1H-inden-1-one]: the concentration giving a half-maximal response (EC50) in assay [1] and in assay [2] was 20 to 100 µM in each case.

On to `CN1CCN(c2ccc(C3=C(c4ccccc4)C(=O)c4ccccc43)cc2)CC1` [Compound 94, 3-(4-(4-methylpiperazin-1-yl)phenyl)-2-phenyl-1H-inden-1-one], for which the EC50 in assay [1] was < 20 µM; in assay [2], 20 to 100 µM.

For the compound `Cc1ncsc1C1=C(c2cccnc2)C(=O)c2cc(NCCOc3ccccc3)ccc21` [Compound 55, 3-(4-methylthiazol-5-yl)-6-((2-phenoxyethyl)amino)-2-(pyridin-3-yl)-1H-inden-1-one], the EC50 was < 20 µM in assay [1] and > 250 µM in assay [2].

As to `O=C1C(c2ccccc2)=C(c2cccc(N3CCOCC3)c2)c2ccccc21` [Compound 15, 3-(3-morpholinophenyl)-2-phenyl-1H-inden-1-one], the EC50 is 20 to 100 µM in assay [1] and > 250 µM in assay [2].

As for `Cc1ncsc1C1=C(c2cccc(CN3CCN(C)CC3)c2)C(=O)c2ccccc21` [Compound 88, 2-(3-((4-methylpiperazin-1-yl)methyl)phenyl)-3-(4-methylthiazol-5-yl)-1H-inden-1-one], the EC50 in assay [1] is < 20 µM; in assay [2], 20 to 100 µM.

Turning to `O=C1C(c2ccccc2)=C(c2ccccc2)c2ccc(N3CCOCC3)cc21` [Compound 12, 6-morpholino-2,3-diphenyl-1H-inden-1-one], the results for the EC50 in assay [1] and in assay [2] were < 20 µM and > 250 µM, respectively.

For `Cc1ccccc1C1=C(c2ccccc2C)c2ccc(O)cc2C1=O` [Compound 82, 6-hydroxy-2,3-di-o-tolyl-1H-inden-1-one], the figures for the EC50 in assay [1] and in assay [2] were < 20 µM and 20 to 100 µM, respectively.

On to `Cc1ncsc1C1=C(c2cccnc2)C(=O)c2cc(N)ccc21` [Compound 59, 6-amino-3-(4-methylthiazol-5-yl)-2-(pyridin-3-yl)-1H-inden-1-one], for which the EC50 in assay [1] and in assay [2] was 20 to 100 µM throughout.

For the compound `O=C1C(c2ccccc2)=C(c2ccccc2)c2ccc(OCCCc3ccccc3)cc21` [Compound 78, 2,3-diphenyl-6-(3-phenylpropoxy)-1H-inden-1-one], the EC50 in assay [1] was 100 to 250 µM; in assay [2], > 250 µM.

For `Cc1ncsc1C1=C(c2ccccn2)C(=O)c2cc(O)ccc21` [Compound 40-4, 6-hydroxy-3-(4-methylthiazol-5-yl)-2-(pyridin-2-yl)-1H-inden-1-one], the EC50 in assay [1] and in assay [2] was > 250 µM in each case.

Turning to `O=C1C(N2CCOCC2)=C(c2ccccc2)c2ccccc21` [Compound 8, 2-morpholino-3-phenyl-1H-inden-1-one], the concentration for a half-maximal effect (EC50) in assay [1] fell in the range of 100 to 250 µM; in assay [2], 20 to 100 µM.

On to `Cc1ncsc1C1=C(c2cccnc2)C(=O)c2cc(OCCO)ccc21` [Compound 36, 6-(2-hydroxyethoxy)-3-(4-methylthiazol-5-yl)-2-(pyridin-3-yl)-1H-inden-1-one], for which the EC50 in assay [1] was 100 to 250 µM; in assay [2], 20 to 100 µM.

With `CC(C)(C)c1cc(C2=C(c3ccccc3)C(=O)c3ccccc32)cc(C(C)(C)C)c1` [Compound 96, 3-(3,5-di-tert-butylphenyl)-2-phenyl-1H-inden-1-one], the concentration for a half-maximal effect (EC50) in assay [1] and in assay [2] was > 250 µM each time.

For `O=C1C(Br)=C(c2ccccc2)c2ccccc21` [Compound 6-2, 2-bromo-3-phenyl-1H-inden-1-one], the values for the half-maximal effective concentration (EC50) in assay [1] and in assay [2] were 20 to 100 µM and < 20 µM, respectively.

On to `O=C1C(C2CCCCC2)=C(c2ccccc2)c2ccccc21` [Compound 11, 2-cyclohexyl-3-phenyl-1H-inden-1-one], for which the concentration giving a half-maximal response (EC50) in assay [1] is 100 to 250 µM; in assay [2], > 250 µM.

As for `Cc1ncsc1C1=C(c2cccnc2)C(=O)c2cc(OCCCc3ccccc3)cc(O)c21` [Compound 48, 4-hydroxy-3-(4-methylthiazol-5-yl)-6-(3-phenylpropoxy)-2-(pyridin-3-yl)-1H-inden-1-one], the EC50 in assay [1] was < 20 µM; in assay [2] it was > 250 µM.

Regarding `CNc1ccc2c(c1)C(=O)C(c1cccnc1)=C2c1scnc1C` [Compound 50, 6-(methylamino)-3-(4-methylthiazol-5-yl)-2-(pyridin-3-yl)-1H-inden-1-one], the EC50 in assay [1] and in assay [2] was > 250 µM each time.

Turning to `COc1ccc2c(c1)C(=O)C(c1cccnc1)=C2c1cnn(C)c1` [Compound 42-6, 6-methoxy-3-(1-methyl-1H-pyrazol-4-yl)-2-(pyridin-3-yl)-1H-inden-1-one], the EC50 in assay [1] and in assay [2] was 20 to 100 µM in each case.

Take `COc1ccccc1C1=C(c2cccnc2)C(=O)c2cc(O)ccc21` [Compound 44-8, 6-hydroxy-3-(2-methoxyphenyl)-2-(pyridin-3-yl)-1H-inden-1-one]: the 50% effective concentration (EC50) fell in the range of 100 to 250 µM in assay [1] and 20 to 100 µM in assay [2].

As to `Cc1ncsc1C1=C(c2cn[nH]c2)C(=O)c2cc(OCCCc3ccccc3)ccc21` [Compound 27, 3-(4-methylthiazol-5-yl)-6-(3-phenylpropoxy)-2-(1H-pyrazol-4-yl)-1H-inden-1-one], the half-maximal effective concentration (EC50) in assay [1] and in assay [2] was < 20 µM each time. Further, the “disaggregation effect for amyloid-beta protein aggregates” value in assay [1] (setting [3]) is “remarkably excellent disaggregation effect”. Further, the “disaggregation effect for tau protein aggregates” value in assay [2] (setting [3]) is reported as “remarkably excellent disaggregation effect”.

For `Cc1ncsc1C1=C(c2cccnc2)C(=O)c2cc(NCCO)ccc21` [Compound 53, 6-((2-hydroxyethyl)amino)-3-(4-methylthiazol-5-yl)-2-(pyridin-3-yl)-1H-inden-1-one], the EC50 in assay [1] and in assay [2] was > 250 µM throughout.

Consider `Cc1ncsc1C1=C(c2cnccn2)C(=O)c2cc(O)ccc21` [Compound 41-4, 6-hydroxy-3-(4-methylthiazol-5-yl)-2-(pyrazin-2-yl)-1H-inden-1-one], for which the EC50 in assay [1] and in assay [2] was > 250 µM throughout.

In the case of `Cc1ncsc1C1=C(c2ccn(C)n2)C(=O)c2cc(OCCCc3ccccc3)ccc21` [Compound 26, 2-(1-methyl-1H-pyrazol-3-yl)-3-(4-methylthiazol-5-yl)-6-(3-phenylpropoxy)-1H-inden-1-one], the EC50 in assay [1] is < 20 µM; in assay [2] it was > 250 µM.

Consider `Cc1cccc(C)c1C1=C(c2ccccc2)C(=O)c2cc(Cl)ccc21` [Compound 72-7, 6-chloro-3-(2,6-dimethylphenyl)-2-phenyl-1H-inden-1-one], for which the EC50 was < 20 µM in assay [1] and > 250 µM in assay [2].

Take `Cc1ccccc1C1=C(c2ccccc2C(=O)O)C(=O)c2ccccc21` [Compound 99-8, 2-(1-oxo-3-(o-tolyl)-1H-inden-2-yl)benzoic acid]: the EC50 is > 250 µM in assay [1] and 20 to 100 µM in assay [2].

On to `O=C1C(c2ccccc2)=C(C2CCCCC2)c2ccccc21` [Compound 10, 3-cyclohexyl-2-phenyl-1H-inden-1-one], for which the half-maximal effective concentration (EC50) in assay [1] and in assay [2] was > 250 µM throughout.

For the compound `Cc1ncsc1C1=C(c2ccc(CN3CCN(C)CC3)cc2)c2ccccc2C1=O` [Compound 92, 3-(4-((4-methylpiperazin-1-yl)methyl)phenyl)-2-(4-methylthiazol-5-yl)-1H-inden-1-one], the 50% effective concentration (EC50) in assay [1] and in assay [2] was 20 to 100 µM throughout.

Turning to `Cc1ncsc1C1=C(c2ccc(N3CCN(C)CC3)cc2)C(=O)c2cc(OCCCc3ccccc3)ccc21` [Compound 76, 2-(4-(4-methylpiperazin-1-yl)phenyl)-3-(4-methylthiazol-5-yl)-6-(3-phenylpropoxy)-1H-inden-1-one], the half-maximal effective concentration (EC50) in assay [1] and in assay [2] was < 20 µM each time.

`O=C1C(c2ccccc2)=C(c2ccccc2)c2ccccc21` [Compound 1, 2,3-diphenylinden-1-one]: the figures for the EC50 in assay [1] and in assay [2] were < 20 µM and > 250 µM, respectively.

With `COCCNc1ccc2c(c1)C(=O)C(c1cccnc1)=C2c1scnc1C` [Compound 54, 6-((2-methoxyethyl)amino)-3-(4-methylthiazol-5-yl)-2-(pyridin-3-yl)-1H-inden-1-one], the EC50 in assay [1] and in assay [2] was > 250 µM each time.

As for `Cc1ncsc1C1=C(c2ccccn2)C(=O)c2cc(OCCCc3ccccc3)ccc21` [Compound 40, 3-(4-methylthiazol-5-yl)-6-(3-phenylpropoxy)-2-(pyridin-2-yl)-1H-inden-1-one], the EC50 is < 20 µM in assay [1] and > 250 µM in assay [2].

In the case of `CN1CCN(c2ccc3c(c2)C(=O)C(c2cccc(N4CCOCC4)c2)=C3c2cccc(N3CCOCC3)c2)CC1` [Compound 80, 6-(4-methylpiperazin-1-yl)-2,3-bis(3-morpholinophenyl)-1H-inden-1-one], the EC50 in assay [1] fell in the range of 20 to 100 µM; in assay [2], 100 to 250 µM.

These data come from patent publication EP4745117A1, “NOVEL INDENONE DERIVATIVE AND USE THEREOF” (Amyloid Solution Inc., priority 2023, dated 2025).
